# According to patent US7553929B2, “Cell permeable peptides for inhibition of inflammatory reactions and methods of use” (Vanderbilt University, priority 1994, dated 2009):
# Read-outs that look alike come from different tables or passages of the source. Bridges are numbered along the chain shown (N, C = ends). Where no end group is shown, it is not given here.
# Columns and labels:
# NIH 3T3 cells [1] = experiment: Cytotoxicity by staining with fluorescein diacetate/ethidium bromide; type: cell-based; details: 0 to 46 μM
# Protocol: (§1) Bars represent the mean±S.E.M. of at least three independent experiments done in triplicate and calculated as multiplicity of counts in the tested sample over the control sample. SA peptide within the concentration range used (0 to 46 μM) was not cytotoxic as determined by staining with fluorescein diacetate/ethidium bromide. ^20
# NIH 3T3 cells [2] = experiment: [3H]thymidine incorporation (mitogenic response) of NIH 3T3 cells; type: cell-based; details: comparable concentration ranges
# Protocol: A 26-residue hybrid peptide (referred to as SA, listed herein as SEQ ID NO:3) was designed and synthesized. […] Thus, the SA peptide differs from the SM peptide only in its 7-residue carboxyl terminal “cargo” region. A functional assay was performed in which SA peptide was able to induce a mitogenic response of NIH 3T3 cells measured by [^3H]thymidine incorporation in a manner similar to aFGF bearing, the same NLS. ^18
# In this functional assay, confluent 3T3 cells grown initially in DMEM containing 10% FBS were transferred to a low serum medium (DMEM containing 0.5% FBS) for 2 days. The test peptides, either SA peptide, SAα pep-tide, ANL peptide, or SM peptide, or aFGF, were added to a fresh low serum medium at the indicated concentrations at 37° C. After 16 hours, [^3H]thymidine was added and 4 hours later, the cells were washed with PBS, treated with trichloroacetic acid, solubilized with 0.15 M NaOH, and the radioactivity was determined in a liquid scintillation counter.
# as §1
# NIH 3T3 cells [3] = experiment: Indirect immunofluorescence assay of peptide import into NIH 3T3 cells; type: cell-based; details: SAα-treated NIH 3T3 cells
# Excerpt: A 26-residue peptide (referred to as SM, listed herein as SEQ ID NO:1) that contained the predicted signal sequence of Kaposi fibroblast growth factor ^16-17 (K-FGF) was chemically synthesized. An indirect immunofluorescence assay using antibody against epitope tag-containing SM peptide was employed to follow translocation of the SM peptide to the intracellular compartments of NIH 3T3 cells. A polyclonal anti-SM peptide antibody against the SM peptide-keyhole limpet haemocyanin conjugate (Pierce) was raised in rabbits and reacted with SM peptide in ELISA (titer>1:30,000). The intracellular SM peptide was detected by an indirect imrnmunofluorescence assay using affinity-purified anti-SM peptide IgG and rhodamine-labeled anti-rabbit antibody (Kirkegaard & Perry). Briefly, confluent NIH 373 cells on the chamber slides (Nunc) were treated with either 0.5 ml SM peptide solution (100 μg ml^−1) in DMEM containing 10% FBS or with 0.5 ml DMEM containing 10% FBS only for 30 minutes at 37° C. The cells were fixed with 3.5% paraformaldehyde solution in PBS followed by 0.25% Triton X-100 in PBS and then treated with 1:20 anti-SM peptide IgG in PBS containing 0.5% bovine serum albumin (BSA) for 1.5 h. The intracellular SM peptide-antibody complexes were visualized by subsequent incubation with a rhodamine-labeled anti-rabbit polyclonal antibody for 1 h. In control systems, anti-SM peptide antibody was preabsorbed with the SM peptide. Intracellular localization of the SAα peptide was detected by immunofluorescence assay using affinity-purified anti-SM peptide IgG as described above for SM peptide. […] A ten-step z-position sectional scanning of the SM peptide-treated cells by the confocal laser scanning microscopy (CLSM) affirmed that these deposits were intracellular. […] Likewise, cells not exposed to SM peptide or cells exposed to SM peptide followed by the secondary antibody alone were negative. If cells were fixed with paraformaldehyde before peptide treatment, the cellular import of SM peptide was prevented.
# To determine the rate of SM peptide import across cell membranes, a kinetic experiment was carried out with the SM peptide-treated NIH 3T3 cells. NIH 3T3 cells were treated at 37° C. with 0.5 ml SM peptide at 100 μg mL^−1 in DMEM containing 10% FBS for 1, 5, 15, 30, 60 and 120 minutes. Intracellular SM peptide deposits were detected by indirect immunofluorescence assay as described above. […] The 30-minute time point was therefore selected to determine the optimal peptide concentrations for detectable import.
# To determine the optimal peptide concentration, NIH 3T3 cells were treated for 30 minutes at 37° C. with 0.5 ml SM peptide solution in DMEM containing 10% FBS at the following concentrations: 0, 2, 10, 50, 100, and 150 μg ml^−1. Intracellular localization of the SM peptide was detected by indirect immunofluorescence assay as described above. […] The cellular import was concentration-dependent and reached a plateau between 50 μg/ml and 100 μg/ml.
# Transport of the SM peptide across the cell membrane was temperature-dependent. […] Accordingly, cellular import of the SM peptide resumed when the incubation temperature shifted from 4° C. to 37° C.
# The intracellular SA peptide could not be tracked by an immunofluorescence assay because it was not recognized by the available anti-SM peptide antibody. However, attaching two extra amino acid residues (Met-Pro) to the carboxyl terminus of the SA peptide produced a modified SA peptide (referred to as SAα, listed herein as SEQ ID NO:4) that contained a 3-amino acid epitope tag, Leu-Met-Pro, recognized by anti-SM peptide antibody in ELISA. […] Like SA peptide, SAα peptide was mitogenic in the thymidine incorporation assay.
# NIH 3T3 cells [4] = experiment: Import of 125I-labeled peptide into NIH 3T3 cells (cell-associated radioactivity; ATP depletion, protease treatment); type: cell-based; details: for Counts in cells: 15 ng, 30 min; for Counts in cell lysates / Counts in supernatants: 5 min
# Excerpt: Intracellular localization of the membrane-permeable peptide was also shown by treatment of cells with proteases following peptide import. For this experiment, 41-residue peptide (referred to as SEP and listed herein as SEQ ID NO:6) that contained the same hydrophobic sequence as SM peptide followed by the sequence of K-FGF(129-153) was designed and synthesized. The latter was present in KP peptide not containing hydrophobic sequence that served as the control for the membrane-permeable SKP peptide. […] The intracellular ^125I-SKP peptide was resistant to the action of proteases.
# Both SKP and KP peptides were radiolabeled with ^125I by the lodogen method (Pierce). The specific activities of both peptides were similar (2.5×10^4 cpm/ng). NIH 3T3 cells were subcultured on a 60-mm dish and incubated at 37° C. for 3 days. The confluent monolayers (1.6×10^6 cells) on each dish were then washed twice with PBS and treated with 15 ng of ^125I-SKP or ^125I-KP peptide at 37° C., for the indicated time. The cells were washed eight times with PBS and twice with 2 M NaCl buffer (pH 7.5) until no radioactivity could be detected in the washings. The washed cells were lysed in lysis buffer (10 mM Tris-HCl, pH 7.0, 0.1 mM EDTA, 1 mM phenylmethylsulphony fluoride, 1 mM dithiothreitol, and 1% Triton X-100) and the radioactivity in the cell lysates was counted in a Packard auto-gamma counter. In some experiments, the washed cells were further treated with pronase (1 mg/ml) or trypsin (0.05%) solution in DMEM for 5 min at 37° C. The supernatants and cells were separated and their radioactivities were counted separately. For ATP depletion assay, cells were incubated with 5 μglml antimycin, 6.5 mM 2-deoxyglucose, and 10 mM glucono-δ-lactone in DMEM for 2 h at 37° C. before addition of ^125I-SKP peptide. The levels of ATP in ATP-depleted cells and normal cells were determined by ATP bioluminescent assay kit (Sigma).
# For ATP depletion assay, confluent NIH 3T3 cells (1.6×10^6 cells) in each dish were treated with or without ATP depleting reagents (antimycin, 2deoxyglucose, and glucono-δ-lactone) for 2 h at 37° C. Cells were then treated with 15 ng of ^125I-SKP peptide for 30 min at 37° C. After complete removal of extracellular^125I-labeled peptides, the radioactivity in the cell lysates was counted. For the assay using proteases, cells were treated with ^125 I-SKP peptide and washed as described above. The ^125I-SKF peptide-associated cells were then treated with pronase (1 mg/ml), trypsin (0.05%), or diluent for 5 min at 37° C. The radio-activities in the cell lysates and supernatants were counted separately. Data in Table 1 represent the mean the mean ±SEM of triplicate determinations of a single experiment. The experiment was repeated three times with similar results.
# NF-κB [5] = type: cell-based, murine; details: J774, LPS 10 ng/ml, peptide 31 μM (Example II)
# rabbits = experiment: Localized Shwartzman reaction (LPS-induced skin inflammatory reaction) in rabbits; type: in vivo, rabbit; details: intradermal application prior to the second LPS injection
# NF-κB complex = details: for Inducible nuclear import of NF-κB, LPS / Inducible nuclear import of NF-κB, TNFα: LEII
# [6] = test system: rodent endothelial cell line (LE-II); experiment: Indirect immunofluorescence assay of peptide import, LE-II cells; type: cell-based
# NF-κB [7] = type: cell-based
substance,measurement,setting,value
AAVALLPAVLLALLAPAAANYKKPKL [SA peptide],Cytotoxicity,NIH 3T3 cells [1],not cytotoxic
"Asn-Tyr-Lys-Lys-Pro-Lys-Leu (NYKKPKL) (1..7 Note/label = a (“Nuclear localization sequence of aFGF”)) [ANL peptide, 7-residue peptide representing the NLS of aFGF, reference compound]",Mitogenic activity in thymidine incorporation assay,NIH 3T3 cells [2],Neither control peptide showed any significant mitogenic activity
SAα peptide: SA peptide with two extra residues (Met-Pro) at the carboxyl terminus (AAVALLPAVLLALLAPAAANYKKPKLMP; 1..16 Note/label = a (“Signal peptide amino acid sequence of K-FGF”)),Mitogenic activity in thymidine incorporation assay,NIH 3T3 cells [2],mitogenic
same,Intracellular peptide staining with anti-SM peptide antibody,NIH 3T3 cells [3],punctate staining pattern
"SKP peptide: 41-residue peptide: same hydrophobic sequence as SM peptide followed by K-FGF(129-153); tested 125I-radiolabeled (AAVALLPAVLLALLAPEILLPNNYNAYESYKYPGMFIALSK; also: 125I radiolabel, site not given here)",Radioactivity detected in peptide-treated cells,"NIH 3T3 cells [4]; 15 ng 125I-peptide, 37° C.",Substantial radioactivity was detected
same,Counts in cells,"NIH 3T3 cells [4]; ATP-depleted cells, 37° C.","22,266 ± 3,602 cpm/1.6 × −10′ cells"
same,Counts in cell lysates,"NIH 3T3 cells [4]; no protease (diluent), 37° C.","21,323 ± 853"
same,Counts in supernatants,"NIH 3T3 cells [4]; no protease (diluent), 37° C.","2,966 ± 838"
same,Counts in cell lysates,"NIH 3T3 cells [4]; pronase 1 mg/ml, 37° C.","21,791 ± 1,953"
same,Counts in supernatants,"NIH 3T3 cells [4]; pronase 1 mg/ml, 37° C.","1,979 ± 75"
same,Loss of cell-associated radioactivity after protease treatment,NIH 3T3 cells [4]; pronase or trypsin,no significant loss of cell-associated radioactivity was observed
same,Counts in supernatants,"NIH 3T3 cells [4]; trypsin 0.05%, 37° C.",655 ± 70
same,Counts in cells,"NIH 3T3 cells [4]; untreated (ATP-positive) cells, 37° C.","20,189 ± 2,109 cpm/1.6 × −10′ cells"
SN50 peptide: 26-residue peptide: K-FGF signal sequence (residues 1-16) and NLS of NF-kB p50 subunit (residues 17-26) (AAVALLPAVLLALLAPVNRKRNKLMP),Nuclear import of NF-κB induced by LPS,NF-κB [5],blocked
same,Localized skin inflammatory reaction (Evans' Blue area),rabbits,greatly diminished area of blue discoloration
same,"Inducible nuclear import of NF-κB, LPS",NF-κB complex; LPS 10 ng/ml (Example II),inhibited
same,"Inducible nuclear import of NF-κB, LPS",NF-κB complex; LPS 10 ng/ml (Example III),inhibited
same,"Inducible nuclear import of NF-κB, TNFα",NF-κB complex; TNFα 20 U/ml (Example III),inhibited
same,"Inducible nuclear import of NF-κB, TNFα",NF-κB complex; TNFα 100 U/ml (Example II),inhibited
same,Intracellular distribution compared to intracellular SM peptide,[6],more nuclear staining pattern
cSN50 peptide: cyclic peptide designed by inserting two cysteines flanking the NLS motif of SN50 (AAVALALLPAVLLALLAPCYVQRKRQKLMPC; disulfide 19-31 (inferred)),Potency relative to the prototypical SN50 peptide (phosphoimager analysis),NF-κB complex; cSN50 versus SN50,3-10 times
same,SEB-induced NF-κB nuclear import,NF-κB [7],increasing inhibition of SEB-induced NF-κB nuclear import
